Experimental data taken from the NIST ThermoML archive (doi:10.1021/je060271a).

Conditions: 283.15 K, Liquid, Vibrating tube method

CCCCCCCC(=O)OCC(COC(=O)CCCCCCC)(COC(=O)CCCCCCC)COC(=O)CCCCCCC [pentaerythritol tetraoctanoate]
Conditions	mass density [kg/m3]
7440.8 kPa	974.4
7459 kPa	974.5
7477.1 kPa	974.5
7498.5 kPa	974.5
7516.3 kPa	974.6
7534.1 kPa	974.5
7555.6 kPa	974.6
7574.3 kPa	974.6
7592.6 kPa	974.6
7614.9 kPa	974.6
7633.7 kPa	974.6
7652.5 kPa	974.6
7671.5 kPa	974.7
7693.9 kPa	974.6
7713.6 kPa	974.7
7732.4 kPa	974.7
7751.9 kPa	974.7
7774.9 kPa	974.8
7794.2 kPa	974.7
7813.7 kPa	974.8
7837.5 kPa	974.7
7857 kPa	974.8
7877.2 kPa	974.8
7897.6 kPa	974.8
7917.4 kPa	974.8
7942.4 kPa	974.8
7963.7 kPa	974.8
7984.1 kPa	974.8
8005.2 kPa	974.9
8025.4 kPa	974.9
8049.7 kPa	974.8
8070.2 kPa	974.9
8092.5 kPa	975.1
8117.1 kPa	974.9
8138 kPa	974.8
8159.8 kPa	974.9
8184.3 kPa	974.9
8205.1 kPa	975
8227.9 kPa	974.9
8252.3 kPa	975
8274.2 kPa	975
8300.2 kPa	975.1
8322.1 kPa	975.1
8344.2 kPa	975.1
8367 kPa	975.1
8393.5 kPa	975
8415.8 kPa	975.1
8438.6 kPa	975
8465.5 kPa	975.1
8487.9 kPa	975.1
8516.4 kPa	975.2
8539.8 kPa	975.1
8563.6 kPa	975.1
8586.9 kPa	975.2
8615 kPa	975.2
8638.6 kPa	975.2
8666.6 kPa	975.3
8690.7 kPa	975.3
8714.3 kPa	975.1
8744.3 kPa	975.2
8768.6 kPa	975.3
8793.6 kPa	975.4
8822.8 kPa	975.4
8847.1 kPa	975.3
8872.8 kPa	975.3
8898.8 kPa	975.4
8929.2 kPa	975.3
8953.6 kPa	975.4
8985 kPa	975.4
9011.4 kPa	975.4
9037.2 kPa	975.4
9063.1 kPa	975.5
9095 kPa	975.3
9120.9 kPa	975.4
9152 kPa	975.5
9179.6 kPa	975.5
9206.9 kPa	975.5
9238.7 kPa	975.5
9266.5 kPa	975.5
9295.1 kPa	975.6
9323 kPa	975.5
9356.5 kPa	975.6
9383.9 kPa	975.2
9416.6 kPa	975.6
9445.6 kPa	975.6
9474.8 kPa	975.6
9509.1 kPa	975.6
9537.9 kPa	975.7
9567.4 kPa	975.8
9602.7 kPa	975.7
9633 kPa	975.8
9662.7 kPa	975.7
9692.8 kPa	975.8
9730.2 kPa	975.8
9760.9 kPa	975.8
9797 kPa	975.9
9827.4 kPa	975.9
9859.1 kPa	975.8
9890.1 kPa	975.9
9927.8 kPa	975.9
9959.5 kPa	976
9991.2 kPa	976
10030 kPa	975.8
10063 kPa	975.9
10103 kPa	976
10135 kPa	975.9
10169 kPa	976
10203 kPa	976.1
10243 kPa	976.1
10276 kPa	976
10311 kPa	976.1
10352 kPa	976
10387 kPa	976.1
10421 kPa	976.1
10464 kPa	976.2
10500 kPa	976.2
10539 kPa	976.3
10575 kPa	976.4
10612 kPa	976.3
10655 kPa	976.1
10692 kPa	976.4
10736 kPa	976.3
10773 kPa	976.4
10813 kPa	976.3
10851 kPa	976.4
10890 kPa	976.5
10936 kPa	976.5
10974 kPa	976.5
11022 kPa	976.5
11063 kPa	976.4
11103 kPa	976.5
11143 kPa	976.6
11183 kPa	976.6
11232 kPa	976.8
11272 kPa	976.6
11322 kPa	976.6
11363 kPa	976.6
11404 kPa	976.6
11456 kPa	976.9
11499 kPa	976.7
11542 kPa	976.8
11594 kPa	976.8
11639 kPa	976.8
11683 kPa	976.8
11736 kPa	976.9
11780 kPa	976.8
11826 kPa	977
11881 kPa	976.9
11928 kPa	976.9
11974 kPa	977.1
12022 kPa	977
12078 kPa	977
12126 kPa	977.1
12174 kPa	977.1
12234 kPa	977.1
12283 kPa	977.2
12334 kPa	977.2
12394 kPa	977.1
12445 kPa	977.3
12496 kPa	977.2
12548 kPa	977.3
12611 kPa	977.3
12662 kPa	977.3
12708 kPa	977.5
12785 kPa	977.5
12834 kPa	977.5
12903 kPa	977.4
12955 kPa	977.6
12988 kPa	977.5
13021 kPa	977.6
13054 kPa	977.6
13095 kPa	977.6
13128 kPa	977.6
13170 kPa	977.5
13204 kPa	977.8
13238 kPa	977.7
13272 kPa	977.7
13314 kPa	977.8
13350 kPa	977.7
13385 kPa	977.8
13427 kPa	977.8
13463 kPa	977.8
13506 kPa	977.9
13542 kPa	977.9
13579 kPa	977.9
13615 kPa	978
13660 kPa	977.9
13697 kPa	977.8
13734 kPa	977.9
13779 kPa	978
13816 kPa	978.1
13863 kPa	978
13902 kPa	978
13942 kPa	978.1
13982 kPa	978.1
14031 kPa	978.1
14074 kPa	978.2
14118 kPa	978.2
14166 kPa	978.1
14190 kPa	978.3
14210 kPa	978.2
14230 kPa	978.3
14254 kPa	978.2
14274 kPa	978.3
14298 kPa	978.3
14319 kPa	978.3
14340 kPa	978.4
14360 kPa	978.3
14384 kPa	978.3
14405 kPa	978.4
14426 kPa	978.4
14446 kPa	978.4
14472 kPa	978.2
14492 kPa	978.3
14514 kPa	978.3
14539 kPa	978.5
14560 kPa	978.4
14582 kPa	978.4
14608 kPa	978.5
14625 kPa	978.5
14650 kPa	978.4
14671 kPa	978.4
14693 kPa	978.6
14718 kPa	978.4
14740 kPa	978.5
14765 kPa	978.6
14787 kPa	978.6
14809 kPa	978.6
14835 kPa	978.4
14857 kPa	978.6
14879 kPa	978.7
14906 kPa	978.6
14928 kPa	978.7
14950 kPa	978.5
14976 kPa	978.6
14999 kPa	978.6
15022 kPa	978.7
15044 kPa	978.7
15071 kPa	978.7
15093 kPa	978.7
15116 kPa	978.5
15143 kPa	978.8
15166 kPa	978.7
15189 kPa	978.8
15217 kPa	978.7
15240 kPa	978.8
15263 kPa	978.6
15291 kPa	978.9
15314 kPa	978.8
15338 kPa	978.9
15366 kPa	978.7
15389 kPa	978.8
15417 kPa	978.9
15441 kPa	978.9
15465 kPa	978.9
15488 kPa	978.9
15517 kPa	979
15542 kPa	978.9
15566 kPa	978.9
15595 kPa	978.9
15620 kPa	978.9
15644 kPa	979
15673 kPa	979
15698 kPa	979
15722 kPa	979
15752 kPa	979.1
15776 kPa	979.1
15801 kPa	979.2
15831 kPa	979
15856 kPa	979.1
15882 kPa	979.1
15912 kPa	979.2
15938 kPa	979.2
15963 kPa	979.1
15994 kPa	979.2
16019 kPa	979.2
16045 kPa	979.1
16076 kPa	979.2
16102 kPa	979.2
16128 kPa	979.4
16159 kPa	979.2
16185 kPa	979.2
16212 kPa	979.2
16238 kPa	979.4
16270 kPa	979.3
16296 kPa	979.4
16328 kPa	979.4
16355 kPa	979.5
16382 kPa	979.5
16409 kPa	979.4
16441 kPa	979.5
16468 kPa	979.5
16501 kPa	979.4
16528 kPa	979.5
16556 kPa	979.4
16591 kPa	979.4
